Measurements as given in ChEMBL document CHEMBL3885881, “DrugMatrix”.
“And” between values parts separate entries of the source, which are not always exact repeats. Equal entries are not always repeated.

Organism: Rattus norvegicus
Assay: DrugMatrix - Regimen: Daily Repeat
Assay type: toxicity, organism-based, Sprague-Dawley
Set-up: regimen Daily Repeat, gender Male, age 6-8 weeks
Settings: in vivo, po, route oral GAVAGE, vehicle 100 % SALINE; for ABSOLUTE BASOPHIL / ABSOLUTE LYMPHOCYTE / ABSOLUTE SEGMENTED NEUTROPHIL / BASOPHIL / EOSINOPHIL / ERYTHROCYTE COUNT / HEMATOCRIT / HEMOGLOBIN / LEUKOCYTE COUNT / LYMPHOCYTE / MEAN CORPUSCULAR HEMOGLOBIN / MEAN CORPUSCULAR HEMOGLOBIN CONCENTRATION / MONOCYTE / NEUTROPHIL / NUCLEATED RED BLOOD CELLS / PLATELET COUNT / ABSOLUTE EOSINOPHIL / ABSOLUTE MONOCYTE: tissue Blood; for ALANINE AMINOTRANSFERASE / ALBUMIN / ALKALINE PHOSPHATASE / ASPARTATE AMINOTRANSFERASE / BLOOD UREA NITROGEN / CARBON DIOXIDE / CHLORIDE / CHOLESTEROL / CREATINE PHOSPHOKINASE / CREATININE / GLUCOSE / LIPASE / PHOSPHORUS / SODIUM / TOTAL BILIRUBIN / TOTAL PROTEIN / LACTATE DEHYDROGENASE: tissue Plasma
[1] = 0 mg/kg, 72 h, dose level Control, time 3 day
[2] = 0 mg/kg, 120 h, dose level Control, time 5 day
[3] = 0 mg/kg, […], dose level Control, time 7 day
[4] = 140 mg/kg, 72 h, dose level Low, time 3 day
[5] = 140 mg/kg, 120 h, dose level Low, time 5 day
[6] = 700 mg/kg, 72 h, dose level Low, time 3 day

## CN(C)C=O [DIMETHYLFORMAMIDE]
[1]
  ABSOLUTE BASOPHIL: 0 CELLS/uL
  ABSOLUTE LYMPHOCYTE: 8960.83 CELLS/uL and 11922.83 CELLS/uL
  ABSOLUTE SEGMENTED NEUTROPHIL: 635.67 CELLS/uL and 1526.33 CELLS/uL
  BASOPHIL: 0%
  EOSINOPHIL: 0% and 0.5%
  ERYTHROCYTE COUNT: 5.09 x10E6/uL and 5.62 x10E6/uL
  HEMATOCRIT: 31.8% and 37.17%
  HEMOGLOBIN: 12.42 G/DL and 13.53 G/DL
  LEUKOCYTE COUNT: 9.7 x10E3/uL and 13.92 x10E3/uL
  LYMPHOCYTE: 92.33% and 86.17%
  MEAN CORPUSCULAR HEMOGLOBIN: 24.4 pg and 24.07 pg
  MEAN CORPUSCULAR HEMOGLOBIN CONCENTRATION: 39.07 G/DL and 36.42 G/DL
  MONOCYTE: 1% and 3%
  NEUTROPHIL: 6.67% and 10.33%
  NUCLEATED RED BLOOD CELLS: 0 /100WBC
  PLATELET COUNT: 466.5 x10E3/uL and 1107 x10E3/uL
  ALANINE AMINOTRANSFERASE: 83.33 u/L and 45.33 u/L
  ALBUMIN: 4.33 G/DL and 4.3 G/DL
  ALKALINE PHOSPHATASE: 340.5 u/L and 321.33 u/L
  ASPARTATE AMINOTRANSFERASE: 189.83 u/L and 77.33 u/L
  BLOOD UREA NITROGEN: 15.83 mg/dL and 14.33 mg/dL
  CARBON DIOXIDE: 38 mmol/L and 32.33 mmol/L
  CHLORIDE: 96.83 MEQ/L and 99.67 MEQ/L
  CHOLESTEROL: 72.5 mg/dL and 82.33 mg/dL
  CREATINE PHOSPHOKINASE: 370.67 u/L and 205.5 u/L
  CREATININE: 0.28 mg/dL and 0.19 mg/dL
  GLUCOSE: 182.83 mg/dL and 150.83 mg/dL
  LIPASE: 9.83 u/L and 10.83 u/L
  PHOSPHORUS: 11.32 mg/dL and 10.9 mg/dL
  SODIUM: 145.12 MEQ/L and 145.15 MEQ/L
  TOTAL BILIRUBIN: 0.2 mg/dL and 0.12 mg/dL
  TOTAL PROTEIN: 6.4 G/DL and 6.22 G/DL
[2]
  ABSOLUTE BASOPHIL: 0 CELLS/uL
  ABSOLUTE EOSINOPHIL: 43.83 CELLS/uL
  ABSOLUTE LYMPHOCYTE: 7316.67 CELLS/uL
  ABSOLUTE MONOCYTE: 87.33 CELLS/uL
  ABSOLUTE SEGMENTED NEUTROPHIL: 418.83 CELLS/uL
  BASOPHIL: 0%
  EOSINOPHIL: 0.33%
  ERYTHROCYTE COUNT: 4.77 x10E6/uL
  HEMATOCRIT: 29.93%
  HEMOGLOBIN: 11.48 G/DL
  LEUKOCYTE COUNT: 7.87 x10E3/uL
  LYMPHOCYTE: 93.5%
  MEAN CORPUSCULAR HEMOGLOBIN: 24.17 pg
  MEAN CORPUSCULAR HEMOGLOBIN CONCENTRATION: 38.57 G/DL
  MONOCYTE: 1%
  NEUTROPHIL: 5.17%
  NUCLEATED RED BLOOD CELLS: 0 /100WBC
  PLATELET COUNT: 377.67 x10E3/uL
  ALANINE AMINOTRANSFERASE: 89 u/L
  ALBUMIN: 4.42 G/DL
  ALKALINE PHOSPHATASE: 275.17 u/L
  ASPARTATE AMINOTRANSFERASE: 204.17 u/L
  BLOOD UREA NITROGEN: 15.33 mg/dL
  CARBON DIOXIDE: 36.83 mmol/L
  CHLORIDE: 94.67 MEQ/L
  CHOLESTEROL: 92 mg/dL
  CREATINE PHOSPHOKINASE: 514.5 u/L
  CREATININE: 0.24 mg/dL
  GLUCOSE: 184.17 mg/dL
  LACTATE DEHYDROGENASE: 648.67 u/L
  LIPASE: 10 u/L
  PHOSPHORUS: 12.33 mg/dL
  SODIUM: 144.63 MEQ/L
  TOTAL BILIRUBIN: 0.18 mg/dL
  TOTAL PROTEIN: 6.7 G/DL
[3]
  ABSOLUTE BASOPHIL: 0 CELLS/uL
  ABSOLUTE EOSINOPHIL: 22 CELLS/uL
  ABSOLUTE LYMPHOCYTE: 11105.17 CELLS/uL
  ABSOLUTE MONOCYTE: 258.17 CELLS/uL
  ABSOLUTE SEGMENTED NEUTROPHIL: 881.33 CELLS/uL
  BASOPHIL: 0%
  EOSINOPHIL: 0.17%
  ERYTHROCYTE COUNT: 5.29 x10E6/uL
  HEMATOCRIT: 34.03%
  HEMOGLOBIN: 13.67 G/DL
  LEUKOCYTE COUNT: 12.27 x10E3/uL
  LYMPHOCYTE: 90.83%
  MEAN CORPUSCULAR HEMOGLOBIN: 25.9 pg
  MEAN CORPUSCULAR HEMOGLOBIN CONCENTRATION: 40.18 G/DL
  MONOCYTE: 2.17%
  NEUTROPHIL: 6.83%
  NUCLEATED RED BLOOD CELLS: 0 /100WBC
  PLATELET COUNT: 1159.83 x10E3/uL
  ALANINE AMINOTRANSFERASE: 45.83 u/L
  ALBUMIN: 4.1 G/DL
  ALKALINE PHOSPHATASE: 240 u/L
  ASPARTATE AMINOTRANSFERASE: 88.67 u/L
  BLOOD UREA NITROGEN: 13.67 mg/dL
  CARBON DIOXIDE: 31.83 mmol/L
  CHLORIDE: 96.83 MEQ/L
  CHOLESTEROL: 71.17 mg/dL
  CREATINE PHOSPHOKINASE: 202.5 u/L
  CREATININE: 0.22 mg/dL
  GLUCOSE: 132.67 mg/dL
  LACTATE DEHYDROGENASE: 107.17 u/L
  LIPASE: 10.5 u/L
  PHOSPHORUS: 10.47 mg/dL
  SODIUM: 140.73 MEQ/L
  TOTAL BILIRUBIN: 0.12 mg/dL
  TOTAL PROTEIN: 6.18 G/DL
[4]
  ABSOLUTE BASOPHIL: 0 CELLS/uL
  ABSOLUTE EOSINOPHIL: 31.33 CELLS/uL
  ABSOLUTE LYMPHOCYTE: 5899.33 CELLS/uL
  ABSOLUTE MONOCYTE: 62.67 CELLS/uL
  ABSOLUTE SEGMENTED NEUTROPHIL: 306.67 CELLS/uL
  BASOPHIL: 0%
  EOSINOPHIL: 0.33%
  ERYTHROCYTE COUNT: 4.99 x10E6/uL
  HEMATOCRIT: 31.43%
  HEMOGLOBIN: 12.53 G/DL
  LEUKOCYTE COUNT: 6.3 x10E3/uL
  LYMPHOCYTE: 94.67%
  MEAN CORPUSCULAR HEMOGLOBIN: 25.27 pg
  MEAN CORPUSCULAR HEMOGLOBIN CONCENTRATION: 40.07 G/DL
  MONOCYTE: 0.67%
  NEUTROPHIL: 4.33%
  NUCLEATED RED BLOOD CELLS: 0 /100WBC
  PLATELET COUNT: 734 x10E3/uL
  ALANINE AMINOTRANSFERASE: 52.67 u/L
  ALBUMIN: 4.17 G/DL
  ALKALINE PHOSPHATASE: 264.67 u/L
  ASPARTATE AMINOTRANSFERASE: 88.67 u/L
  BLOOD UREA NITROGEN: 12.33 mg/dL
  CARBON DIOXIDE: 36.67 mmol/L
  CHLORIDE: 97.33 MEQ/L
  CHOLESTEROL: 97.67 mg/dL
  CREATINE PHOSPHOKINASE: 161.33 u/L
  CREATININE: 0.33 mg/dL
  GLUCOSE: 208 mg/dL
  LACTATE DEHYDROGENASE: 181.33 u/L
  LIPASE: 10.67 u/L
  PHOSPHORUS: 11.23 mg/dL
  SODIUM: 148.43 MEQ/L
  TOTAL BILIRUBIN: 0.2 mg/dL
  TOTAL PROTEIN: 6.1 G/DL
[5]
  ABSOLUTE BASOPHIL: 0 CELLS/uL
  ABSOLUTE EOSINOPHIL: 0 CELLS/uL
  ABSOLUTE LYMPHOCYTE: 9653 CELLS/uL
  ABSOLUTE MONOCYTE: 169 CELLS/uL
  ABSOLUTE SEGMENTED NEUTROPHIL: 644.67 CELLS/uL
  BASOPHIL: 0%
  EOSINOPHIL: 0%
  ERYTHROCYTE COUNT: 6.77 x10E6/uL
  HEMATOCRIT: 41.07%
  HEMOGLOBIN: 15.33 G/DL
  LEUKOCYTE COUNT: 10.47 x10E3/uL
  LYMPHOCYTE: 93.33%
  MEAN CORPUSCULAR HEMOGLOBIN: 22.63 pg
  MEAN CORPUSCULAR HEMOGLOBIN CONCENTRATION: 37.33 G/DL
  MONOCYTE: 1.67%
  NEUTROPHIL: 5%
  NUCLEATED RED BLOOD CELLS: 0 /100WBC
  PLATELET COUNT: 1170.67 x10E3/uL
  ALANINE AMINOTRANSFERASE: 57.33 u/L
  ALBUMIN: 4.4 G/DL
  ALKALINE PHOSPHATASE: 234.67 u/L
  ASPARTATE AMINOTRANSFERASE: 93.67 u/L
  BLOOD UREA NITROGEN: 17.67 mg/dL
  CARBON DIOXIDE: 34.33 mmol/L
  CHLORIDE: 96.33 MEQ/L
  CHOLESTEROL: 111.33 mg/dL
  CREATINE PHOSPHOKINASE: 195.67 u/L
  CREATININE: 0.19 mg/dL
  GLUCOSE: 171.33 mg/dL
  LACTATE DEHYDROGENASE: 243 u/L
  LIPASE: 11.33 u/L
  PHOSPHORUS: 10.83 mg/dL
  SODIUM: 145.97 MEQ/L
  TOTAL BILIRUBIN: 0.13 mg/dL
  TOTAL PROTEIN: 6.67 G/DL
[6]
  ABSOLUTE BASOPHIL: 0 CELLS/uL
  ABSOLUTE EOSINOPHIL: 0 CELLS/uL
  ABSOLUTE LYMPHOCYTE: 7783.67 CELLS/uL
  ABSOLUTE MONOCYTE: 176.17 CELLS/uL
  ABSOLUTE SEGMENTED NEUTROPHIL: 1123.5 CELLS/uL
  BASOPHIL: 0%
  EOSINOPHIL: 0%
  ERYTHROCYTE COUNT: 5.7 x10E6/uL
  HEMATOCRIT: 37.75%
  HEMOGLOBIN: 13.52 G/DL
  LEUKOCYTE COUNT: 9.08 x10E3/uL
  LYMPHOCYTE: 86.17%
  MEAN CORPUSCULAR HEMOGLOBIN: 23.73 pg
  MEAN CORPUSCULAR HEMOGLOBIN CONCENTRATION: 35.83 G/DL
  MONOCYTE: 1.83%
  NEUTROPHIL: 12%
  NUCLEATED RED BLOOD CELLS: 0 /100WBC
  PLATELET COUNT: 951.67 x10E3/uL
  ALANINE AMINOTRANSFERASE: 77.33 u/L
